Test system: P12-Ichikawa
Assay: cell viability relative to DMSO control; higher = less cytotoxic
Conditions: 48 h
Method in brief: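 Three leukemia lines were tested: NOMO1 and SEM at 500 cells/well and P12-Ichikawa at 1000 cells/well. Each was adapted for at least four passages in each medium and seeded in 5 μl in 1536-well plates, and library compounds in DMSO were pin-dosed from 47 μM to 0.79 nM in 11 threefold steps. After 48 h at 37°C, CellTiter-Glo One luminescence was read. Viability is a percentage relative to DMSO wells on each plate, with cell-free wells as background.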

[1] = HPLM + 10% dialyzed FBS, 0.000781 µM
[2] = HPLM + 10% dialyzed FBS, 0.00234 µM
[3] = HPLM + 10% dialyzed FBS, 0.00702 µM
[4] = HPLM + 10% dialyzed FBS, 0.0211 µM
[5] = HPLM + 10% dialyzed FBS, 0.0632 µM
[6] = HPLM + 10% dialyzed FBS, 0.19 µM
[7] = HPLM + 10% dialyzed FBS, 0.569 µM
[8] = HPLM + 10% dialyzed FBS, 1.71 µM
[9] = HPLM + 10% dialyzed FBS, 5.12 µM
[10] = HPLM + 10% dialyzed FBS, 15.4 µM
[11] = HPLM + 10% dialyzed FBS, 46.1 µM
[12] = RPMI 5 mM glucose + 10% FBS, 0.000781 µM
[13] = RPMI 5 mM glucose + 10% FBS, 0.00234 µM
[14] = RPMI 5 mM glucose + 10% FBS, 0.00702 µM
[15] = RPMI 5 mM glucose + 10% FBS, 0.0211 µM
[16] = RPMI 5 mM glucose + 10% FBS, 0.0632 µM
[17] = RPMI 5 mM glucose + 10% FBS, 0.19 µM
[18] = RPMI 5 mM glucose + 10% FBS, 0.569 µM
[19] = RPMI 5 mM glucose + 10% FBS, 1.71 µM
[20] = RPMI 5 mM glucose + 10% FBS, 5.12 µM
[21] = RPMI 5 mM glucose + 10% FBS, 15.4 µM
[22] = RPMI 5 mM glucose + 10% FBS, 46.1 µM
[23] = RPMI 5 mM glucose + 10% dialyzed FBS, 0.000781 µM
[24] = RPMI 5 mM glucose + 10% dialyzed FBS, 0.00234 µM
[25] = RPMI 5 mM glucose + 10% dialyzed FBS, 0.00702 µM
[26] = RPMI 5 mM glucose + 10% dialyzed FBS, 0.0211 µM
[27] = RPMI 5 mM glucose + 10% dialyzed FBS, 0.0632 µM
[28] = RPMI 5 mM glucose + 10% dialyzed FBS, 0.19 µM
[29] = RPMI 5 mM glucose + 10% dialyzed FBS, 0.569 µM
[30] = RPMI 5 mM glucose + 10% dialyzed FBS, 1.71 µM
[31] = RPMI 5 mM glucose + 10% dialyzed FBS, 5.12 µM
[32] = RPMI 5 mM glucose + 10% dialyzed FBS, 15.4 µM
[33] = RPMI 5 mM glucose + 10% dialyzed FBS, 46.1 µM

`Cc1noc(N[S+](=O)([O-])c2ccc(N)cc2)c1C` showed a cell viability [1] of 99.4%, a cell viability [2] of 106% and a cell viability [3] of 104%. For the same compound, the cell viability [4] was 112%, the cell viability [5] was 115% and the cell viability [6] was 109%. It also gave a cell viability [7] of 111%, a cell viability [8] of 114% and a cell viability [9] of 109%. For the same compound, the cell viability [10] was 102%, the cell viability [11] was 117% and the cell viability [12] was 85.2%. The cell viability [13] was 102%, the cell viability [14] was 97.6% and the cell viability [15] was 91.2%. For the same compound, the cell viability [16] was 99.8%, the cell viability [17] was 105% and the cell viability [18] was 98.1%. For the same compound, the cell viability [19] was 94.1%, the cell viability [20] was 102% and the cell viability [21] was 96.8%. For the same compound, the cell viability [22] was 100%, the cell viability [23] was 92.4% and the cell viability [24] was 90.5%. It also gave a cell viability [25] of 99.5%, a cell viability [26] of 89.7% and a cell viability [27] of 106%. The cell viability [28] was 106%, the cell viability [29] was 108% and the cell viability [30] was 99.3%. For the same compound, the cell viability [31] was 101%, the cell viability [32] was 94.1% and the cell viability [33] was 98.9%.

`CC1(C)CCC(C)(C)c2cc(NC(=O)c3ccc(C(=O)O)cc3)ccc21` showed a cell viability [1] of 73.7%, a cell viability [2] of 116% and a cell viability [3] of 101%. For the same compound, the cell viability [4] was 102%, the cell viability [5] was 107% and the cell viability [6] was 106%. It also gave a cell viability [7] of 105%, a cell viability [8] of 104% and a cell viability [9] of 106%. It also gave a cell viability [10] of 101%, a cell viability [11] of 96.4% and a cell viability [12] of 102%. For the same compound, the cell viability [13] was 103%, the cell viability [14] was 93.9% and the cell viability [15] was 96.2%. For the same compound, the cell viability [16] was 103%, the cell viability [17] was 97.8% and the cell viability [18] was 104%. The cell viability [19] was 109%, the cell viability [20] was 101% and the cell viability [21] was 98.9%. The cell viability [22] was 88.5%, the cell viability [23] was 96.2% and the cell viability [24] was 104%. It also gave a cell viability [25] of 98.4%, a cell viability [26] of 108% and a cell viability [27] of 110%. For the same compound, the cell viability [28] was 105%, the cell viability [29] was 116% and the cell viability [30] was 108%. It also gave a cell viability [31] of 107%, a cell viability [32] of 102% and a cell viability [33] of 79.6%.

In the case of `COC(=O)[C@H](Cc1ccccc1)NC(=O)[C@@H](N)CC(=O)O`, the cell viability [1] is reported as 112%, the cell viability [2] is reported as 119% and the cell viability [3] is reported as 120%. For the same compound, the cell viability [4] was 115%, the cell viability [5] was 119% and the cell viability [6] was 108%. The cell viability [7] was 112%, the cell viability [8] was 112% and the cell viability [9] was 106%. The cell viability [10] was 101%, the cell viability [11] was 100% and the cell viability [12] was 110%. The cell viability [13] was 110%, the cell viability [14] was 113% and the cell viability [15] was 119%. The cell viability [16] was 115%, the cell viability [17] was 125% and the cell viability [18] was 107%. It also gave a cell viability [19] of 109%, a cell viability [20] of 102% and a cell viability [21] of 102%. For the same compound, the cell viability [22] was 108%, the cell viability [23] was 114% and the cell viability [24] was 109%. It also gave a cell viability [25] of 125%, a cell viability [26] of 112% and a cell viability [27] of 120%. The cell viability [28] was 110%, the cell viability [29] was 112% and the cell viability [30] was 110%. It also gave a cell viability [31] of 107%, a cell viability [32] of 104% and a cell viability [33] of 101%.

Work on `COc1cc2c(cc1OC)CN(CCc1ccc(NC(=O)c3cccc4c(=O)c5cccc(OC)c5[nH]c34)cc1)CC2` yielded a cell viability [1] of 101%, a cell viability [2] of 105% and a cell viability [3] of 107%. It also gave a cell viability [4] of 118%, a cell viability [5] of 111% and a cell viability [6] of 112%. It also gave a cell viability [7] of 123%, a cell viability [8] of 21.1% and a cell viability [9] of 11.5%. For the same compound, the cell viability [10] was 5%, the cell viability [11] was 3.03% and the cell viability [12] was 96.9%. It also gave a cell viability [13] of 101%, a cell viability [14] of 102% and a cell viability [15] of 111%. For the same compound, the cell viability [16] was 109%, the cell viability [17] was 112% and the cell viability [18] was 113%. For the same compound, the cell viability [19] was 119%, the cell viability [20] was 25.2% and the cell viability [21] was 5.14%. It also gave a cell viability [22] of 2.82%, a cell viability [23] of 104% and a cell viability [24] of 109%. The cell viability [25] was 112%, the cell viability [26] was 111% and the cell viability [27] was 113%. It also gave a cell viability [28] of 121%, a cell viability [29] of 110% and a cell viability [30] of 103%. For the same compound, the cell viability [31] was 20%, the cell viability [32] was 6.37% and the cell viability [33] was 2.85%.

Work on `CCc1nc(N)nc(N)c1-c1ccc(Cl)cc1` yielded a cell viability [1] of 93.6%, a cell viability [2] of 97.3% and a cell viability [3] of 89.5%. The cell viability [4] was 98.6%, the cell viability [5] was 95.5% and the cell viability [6] was 89.1%. It also gave a cell viability [7] of 76.1%, a cell viability [8] of 56.5% and a cell viability [9] of 46.2%. It also gave a cell viability [10] of 33.8%, a cell viability [11] of 21.9% and a cell viability [12] of 91.2%. For the same compound, the cell viability [13] was 91.9%, the cell viability [14] was 88.6% and the cell viability [15] was 93.4%. The cell viability [16] was 107%, the cell viability [17] was 97% and the cell viability [18] was 98.4%. The cell viability [19] was 90%, the cell viability [20] was 87.3% and the cell viability [21] was 68.4%. For the same compound, the cell viability [22] was 57.1%, the cell viability [23] was 82.2% and the cell viability [24] was 91.3%. It also gave a cell viability [25] of 89%, a cell viability [26] of 96.6% and a cell viability [27] of 95.3%. It also gave a cell viability [28] of 90.1%, a cell viability [29] of 84.3% and a cell viability [30] of 85.2%. The cell viability [31] was 86.5%, the cell viability [32] was 48.3% and the cell viability [33] was 24.4%.

Work on `CC1(C)[C@@H](O)CC[C@@]2(C)[C@H]1CC[C@]3(C)[C@@H]2C(=O)\C=C/4[C@@H]5C[C@](C)(CC[C@]5(C)CC[C@@]34C)C(O)=O` yielded a cell viability [1] of 99.9%, a cell viability [2] of 125% and a cell viability [3] of 117%. For the same compound, the cell viability [4] was 112%, the cell viability [5] was 109% and the cell viability [6] was 118%. The cell viability [7] was 110%, the cell viability [8] was 113% and the cell viability [9] was 104%. It also gave a cell viability [10] of 102%, a cell viability [11] of 97.2% and a cell viability [12] of 109%. For the same compound, the cell viability [13] was 121%, the cell viability [14] was 116% and the cell viability [15] was 122%. The cell viability [16] was 114%, the cell viability [17] was 118% and the cell viability [18] was 110%. For the same compound, the cell viability [19] was 122%, the cell viability [20] was 100% and the cell viability [21] was 110%. It also gave a cell viability [22] of 111%, a cell viability [23] of 97.5% and a cell viability [24] of 105%. For the same compound, the cell viability [25] was 113%, the cell viability [26] was 113% and the cell viability [27] was 108%. For the same compound, the cell viability [28] was 104%, the cell viability [29] was 98.9% and the cell viability [30] was 106%. The cell viability [31] was 94.6%, the cell viability [32] was 103% and the cell viability [33] was 96.9%.

In the case of `CC(=O)OCC(=O)[C@@]1(O)CC[C@H]2[C@@H]3CCC/4=C/C(=O)/C=C\[C@]4(C)[C@H]3[C@@H](O)C[C@]12C`, the cell viability [1] is reported as 120%, the cell viability [2] is reported as 128% and the cell viability [3] is reported as 123%. It also gave a cell viability [4] of 126%, a cell viability [5] of 102% and a cell viability [6] of 85.3%. It also gave a cell viability [7] of 95.7%, a cell viability [8] of 72.1% and a cell viability [9] of 66.4%. The cell viability [10] was 118%, the cell viability [11] was 109% and the cell viability [23] was 117%. For the same compound, the cell viability [24] was 118%, the cell viability [25] was 121% and the cell viability [26] was 130%. The cell viability [27] was 92.5%, the cell viability [28] was 77.4% and the cell viability [29] was 100%. For the same compound, the cell viability [30] was 50.8%, the cell viability [31] was 43.8% and the cell viability [32] was 109%. For the same compound, the cell viability [33] was 102%.

— the supplement of paper PMC11451515
